Test results published in patent US10099998B2, “Compound, and separation method, synthesis method and use thereof” (BEIJING PEKING UNIVERSITY WBL BIOTECH CO., LTD., priority 2015, dated 2018).

Target: T1, HMG-CoA reductase (Rattus norvegicus, UniProt P51639)
T1 construct: the male rat liver was removed and rinsed with KESD buffer; from tissue; host or cells: male rat liver microsomes
T1 sequence (P51639 1-887): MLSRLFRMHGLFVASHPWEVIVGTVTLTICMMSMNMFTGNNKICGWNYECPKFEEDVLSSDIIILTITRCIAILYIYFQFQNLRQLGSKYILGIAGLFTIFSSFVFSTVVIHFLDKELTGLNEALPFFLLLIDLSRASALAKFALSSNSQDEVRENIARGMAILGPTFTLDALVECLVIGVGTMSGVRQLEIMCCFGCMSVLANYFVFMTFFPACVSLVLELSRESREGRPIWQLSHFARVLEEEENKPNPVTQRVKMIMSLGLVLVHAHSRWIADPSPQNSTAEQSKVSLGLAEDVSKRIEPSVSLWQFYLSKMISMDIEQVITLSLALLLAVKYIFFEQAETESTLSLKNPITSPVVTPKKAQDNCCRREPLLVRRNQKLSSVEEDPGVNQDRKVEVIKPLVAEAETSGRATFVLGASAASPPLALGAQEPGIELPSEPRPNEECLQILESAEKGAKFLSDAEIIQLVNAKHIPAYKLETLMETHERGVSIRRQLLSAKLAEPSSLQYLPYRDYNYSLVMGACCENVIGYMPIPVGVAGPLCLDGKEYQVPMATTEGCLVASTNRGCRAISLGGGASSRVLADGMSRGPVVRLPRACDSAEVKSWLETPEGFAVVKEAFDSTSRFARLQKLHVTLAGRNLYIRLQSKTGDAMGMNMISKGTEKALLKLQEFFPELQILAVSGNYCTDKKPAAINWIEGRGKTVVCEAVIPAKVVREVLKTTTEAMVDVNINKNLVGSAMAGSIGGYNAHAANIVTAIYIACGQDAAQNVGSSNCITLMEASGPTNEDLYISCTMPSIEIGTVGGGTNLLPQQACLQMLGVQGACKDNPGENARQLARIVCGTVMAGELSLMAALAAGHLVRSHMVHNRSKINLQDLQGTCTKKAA
Experiment: Assay on HMG-CoA reductase-inhibiting activity (decreasing rate of OD340)
Assay type: biochemical
Details: for Inhibition rate (%): rat liver microsomes, 37° C., pH 6.8; for Slope (decreasing rate of OD340 within 5 min): blank control slope 13.5
Experimental: Rat liver microsomes (HMG-CoA reductase) were commercially purchased, or were prepared by reference to the following method: the male rat liver was removed and rinsed with KESD buffer, and then centrifuged at 12,000 g for 15 min. The supernatant was taken. After centrifugation at 105,000 g for 90 min twice, the centrifuged pellets resulted from centrifugation were collected. To the centrifuged pellets, 8.3% glycerol was added, and the resultant mixture was heated in a 37° C. warm bath for 1 h. The crude product of the rat liver microsomes was purified with saturated ammonium sulfate, and the 35-50% purified fraction was collected. The rat liver microsomes obtained were stored in −80° C. refrigerator.
Compound 5 was dissolved in 75% ethanol solution, at an initial concentration of 8.6 mg/ml, and was subjected to stepwise dilution to obtain 4.3 mg/ml, 2.15 mg/ml. The total volume of the test system was 250 μl, and the concentrations of various ingredients were as follows: 200 mM potassium chloride, 160 mM potassium dihydrogen phosphate, 4 mM ethylenediamine tetra acetic acid, 10 mM dithiothreitol, and the concentrations for the two substrates […] and 3-hydroxy-3-methylglutaryl-coenzyme A were 200 μM and 50 μM, pH 6.8, respectively, wherein 30 μl was added for enzyme, 5 μl was added for the test group, and 5 μl (solvent for dissolving the sample) was added for the control group. The dynamic change in OD340 was determined at 37° C. by Versamax ELISA Microplate Reader. The decreasing rate of OD340 (represented by slope) was measured within 5 min, to evaluate the HMG-CoA reductase activity, and to further evaluate the enzyme-inhibiting activity.

SMILES | Inhibition rate (%) (final concentration 80 μg/ml (inhibitor 4.0 mg/ml, 5 μl)) | Slope (decreasing rate of OD340 within 5 min) (final concentration 80 μg/ml) | HMG-CoA reductase inhibition, result in words (43-172 μg/ml, dose-response relationship) | Inhibition rate (%) (final concentration 43 μg/ml (inhibitor 2.15 mg/ml, 5 μl)) | Slope (decreasing rate of OD340 within 5 min) (final concentration 43 μg/ml) | Inhibition rate (%) (final concentration 86 μg/ml (inhibitor 4.3 mg/ml, 5 μl)) | Slope (decreasing rate of OD340 within 5 min) (final concentration 86 μg/ml) | Inhibition rate (%) (final concentration 172 μg/ml (inhibitor 8.6 mg/ml, 5 μl)) | Slope (decreasing rate of OD340 within 5 min) (final concentration 172 μg/ml)
CC[C@H](C)C(=O)O[C@H]1C[C@@H](C)C=C2C=C[C@H](C)[C@H](CC[C@@H]3C[C@@H](O)CC(=O)O3)[C@H]21 [lovastatin, reference compound] | 39.2 | 8.2 | – | – | – | – | – | – | –
COC(=O)CC(O)CC(O)CCC1c2ccc(C)cc2C=CC1C (stereo not drawn) [Compound 5, methyl 7-(2,6-dimethyl-1,2-dihydronaphthalen-1-yl)-3,5-dihydroxyheptanoate] | – | – | inhibited the HMG-CoA reductase activity, and exhibited a dose-response relationship | 19.2 | 10.9 | 33.3 | 9.0 | 42.2 | 7.8
